According to the NIST ThermoML archive (doi:10.1016/j.tca.2012.07.004):

Test: xn = mol fraction of the nth substance listed
Settings: 101 kPa, Liquid; for mass density: Vibrating tube method; for viscosity: Vibrating wire viscometry; for speed of sound: ultrasonic interferometer

CC(=O)[O-].C[NH+](C)C [trimethylammonium acetate] + CN1CCCC1=O
Settings	mass density [kg/m3]	speed of sound [m/s]	viscosity [mPa·s]
298.15 K, x1 = 0.0182	1028.63	1571	2.04
298.15 K, x1 = 0.0369	1030.53	1575	2.28
298.15 K, x1 = 0.0987	1036.87	1578	3.04
298.15 K, x1 = 0.1401	1039.96	1581	3.42
298.15 K, x1 = 0.2032	1043.65	1586	3.89
298.15 K, x1 = 0.3166	1047.89	1584	4.5
298.15 K, x1 = 0.3637	1048.9	1582	4.56
298.15 K, x1 = 0.4353	1049.74	1580	4.61
298.15 K, x1 = 0.5625	1049.92	1571	4.52
298.15 K, x1 = 0.6999	1049.74	1559	4.23
298.15 K, x1 = 0.8435	1050.4	1550	3.7
298.15 K, x1 = 0.936	1051.83	1544	3.27
298.15 K, x1 = 0.9675	1052.54	1543	3.02
298.15 K, x1 = 1	1053.85	1544	2.76
303.15 K, x1 = 0.0182	1026.1	1556	1.64
303.15 K, x1 = 0.0369	1027.79	1560	1.86
303.15 K, x1 = 0.0987	1033.52	1565	2.56
303.15 K, x1 = 0.1401	1036.31	1568	3
303.15 K, x1 = 0.2032	1039.76	1572	3.48
303.15 K, x1 = 0.3166	1043.59	1569	4.05
303.15 K, x1 = 0.3637	1044.52	1566	4.11
303.15 K, x1 = 0.4353	1045.32	1564	4.16
303.15 K, x1 = 0.5625	1045.54	1551	4.01
303.15 K, x1 = 0.6999	1045.69	1537	3.64
303.15 K, x1 = 0.8435	1046.54	1524	3.14
303.15 K, x1 = 0.936	1048.22	1517	2.78
303.15 K, x1 = 0.9675	1048.93	1515	2.52
303.15 K, x1 = 1	1049.87	1514	2.37
308.15 K, x1 = 0.0182	1021.24	1534	1.43
308.15 K, x1 = 0.0369	1023.08	1540	1.57
308.15 K, x1 = 0.0987	1028.14	1546	2.23
308.15 K, x1 = 0.1401	1030.79	1550	2.64
308.15 K, x1 = 0.2032	1034.23	1555	3.14
308.15 K, x1 = 0.3166	1037.97	1554	3.7
308.15 K, x1 = 0.3637	1039.05	1553	3.76
308.15 K, x1 = 0.4353	1039.98	1551	3.77
308.15 K, x1 = 0.5625	1040.55	1540	3.52
308.15 K, x1 = 0.6999	1040.85	1530	3.12
308.15 K, x1 = 0.8435	1042	1519	2.64
308.15 K, x1 = 0.936	1043.81	1512	2.34
308.15 K, x1 = 0.9675	1044.69	1511	2.16
308.15 K, x1 = 1	1045.81	1508	2.06
313.15 K, x1 = 0.0182	1016.53	1528	1.52
313.15 K, x1 = 0.0369	1017.98	1533	1.38
313.15 K, x1 = 0.0987	1023.07	1538	1.96
313.15 K, x1 = 0.1401	1025.67	1542	2.39
313.15 K, x1 = 0.2032	1029.09	1546	2.81
313.15 K, x1 = 0.3166	1032.81	1544	3.37
313.15 K, x1 = 0.3637	1033.73	1543	3.41
313.15 K, x1 = 0.4353	1034.71	1540	3.42
313.15 K, x1 = 0.5625	1035.21	1528	3.16
313.15 K, x1 = 0.6999	1035.7	1517	2.74
313.15 K, x1 = 0.8435	1037.36	1508	2.25
313.15 K, x1 = 0.936	1039.26	1502	2.04
313.15 K, x1 = 0.9675	1040.35	1496	1.92
313.15 K, x1 = 1	1041.7	1490	1.83

CCN(CC)CC.O=P(O)(O)O [triethylammonium dihydrogen phosphate] + CN1CCCC1=O
Settings	mass density [kg/m3]	speed of sound [m/s]	viscosity [mPa·s]
298.15 K, x1 = 0.0115	1032	1574	1.95
298.15 K, x1 = 0.0257	1036.63	1580	2.23
298.15 K, x1 = 0.0702	1047.93	1602	2.5
298.15 K, x1 = 0.0995	1054.84	1624	3.22
298.15 K, x1 = 0.1498	1065.79	1657	4.42
298.15 K, x1 = 0.2409	1081.01	1711	6.12
298.15 K, x1 = 0.282	1086.8	1735	6.52
298.15 K, x1 = 0.3482	1094.7	1763	7.12
298.15 K, x1 = 0.4709	1105.46	1806	10.71
298.15 K, x1 = 0.6161	1114.03	1831	17.12
298.15 K, x1 = 0.6975	1117.42	1836	22.9
298.15 K, x1 = 0.7906	1120.24	1829	31.5
298.15 K, x1 = 0.9135	1123.51	1817	47.02
298.15 K, x1 = 0.9579	1124.64	1809	53.91
298.15 K, x1 = 1	1125.7	1794	64.31
303.15 K, x1 = 0.0115	1027.87	1558	0.97
303.15 K, x1 = 0.0257	1032.6	1570	1.24
303.15 K, x1 = 0.0702	1044.24	1595	2.49
303.15 K, x1 = 0.0995	1051.16	1620	3.17
303.15 K, x1 = 0.1498	1061.32	1656	3.8
303.15 K, x1 = 0.2409	1076.95	1706	5.27
303.15 K, x1 = 0.282	1083.03	1719	5.55
303.15 K, x1 = 0.3482	1090.71	1753	6.53
303.15 K, x1 = 0.4709	1101.42	1796	8.32
303.15 K, x1 = 0.6161	1110.51	1820	13.52
303.15 K, x1 = 0.6975	1114.2	1826	18.9
303.15 K, x1 = 0.7906	1117.34	1819	26.91
303.15 K, x1 = 0.9135	1121.34	1804	41.33
303.15 K, x1 = 0.9579	1123.03	1791	49.31
303.15 K, x1 = 1	1124.68	1769	57.1
308.15 K, x1 = 0.0115	1023.39	1539	1.07
308.15 K, x1 = 0.0257	1028.04	1544	1.05
308.15 K, x1 = 0.0702	1039.93	1577	1.97
308.15 K, x1 = 0.0995	1046.49	1600	2.57
308.15 K, x1 = 0.1498	1057.16	1636	2.91
308.15 K, x1 = 0.2409	1072.56	1689	4.13
308.15 K, x1 = 0.282	1078.25	1711	4.19
308.15 K, x1 = 0.3482	1086.21	1744	5.05
308.15 K, x1 = 0.4709	1097.31	1789	6.42
308.15 K, x1 = 0.6161	1106.86	1816	11
308.15 K, x1 = 0.6975	1111.06	1819	15.83
308.15 K, x1 = 0.7906	1114.71	1813	23.02
308.15 K, x1 = 0.9135	1119.77	1788	35.92
308.15 K, x1 = 0.9579	1121.61	1769	42.41
308.15 K, x1 = 1	1123.71	1757	49.53
313.15 K, x1 = 0.0115	1018.9	1540	1.61
313.15 K, x1 = 0.0257	1023.44	1552	1.37
313.15 K, x1 = 0.0702	1034.5	1576	1.48
313.15 K, x1 = 0.0995	1041.32	1594	1.81
313.15 K, x1 = 0.1498	1052.28	1630	1.88
313.15 K, x1 = 0.2409	1067.96	1685	1.95
313.15 K, x1 = 0.282	1074.06	1708	2.5
313.15 K, x1 = 0.3482	1081.89	1737	2.99
313.15 K, x1 = 0.4709	1093.3	1785	4.42
313.15 K, x1 = 0.6161	1103.08	1808	8.18
313.15 K, x1 = 0.6975	1107.89	1810	11.52
313.15 K, x1 = 0.7906	1111.88	1804	17.2
313.15 K, x1 = 0.9135	1117.73	1772	28.3
313.15 K, x1 = 0.9579	1119.92	1758	33.32
313.15 K, x1 = 1	1122.37	1730	38.31
